Earlier results in patent publication US20190000834A1, “INJECTABLE COMPOSITION AND A METHOD OF TREATMENT OF THE PHYSICAL ADDICTION” (VERITA RESEARCH PTE LTD, priority 2015, published 2019).

Columns and labels:
amphetamine dependence [1] = settings: Naltrexone 50 mg along with CBT, 12 weeks
[2] = system: amphetamine dependent patients; settings: naltrexone 50 mg
amphetamine dependence [3] = settings: outpatients
[4] = system: methamphetamine self-administering animals

For `O=C1CC[C@@]2(O)[C@H]3Cc4ccc(O)c5c4[C@@]2(CCN3CC2CC2)[C@H]1O5` [Naltrexone, (4R,4aS,7aR,12bS)-3-(cyclopropylmethyl)-4a,9-dihydroxy-2,4,5,6,7a,13-hexahydro-1H-4,12-methanobenzofuro [3,2-e] isoquinoline-7-one], the tolerability (amphetamine dependence [1]) is listed as “well tolerated”, the craving [2] is listed as “significantly blocked” and the “subjective effects produced by dexamphetamine” value [2] is listed as “significantly attenuated”. For the same compound, the amphetamine use (amphetamine dependence [3]) was “effective in reducing amphetamine use” and the “cue- and drug-induced methamphetamine seeking” value [4] was “attenuated cue—but not drug-induced methamphetamine”.
